Patent US5334595A, “Pyrazoloquinolones as anticancer agents” (priority 1992, dated 1994)
Read-outs that look alike come from different tables or passages of the source.

Tests used:
[1] = In vivo antitumor assay, Panc03(sc); design: species or system mice; settings: mouse, in vivo
Source text: Mice: Inbred: C3H/He and NCR-nu; and Hybrids: B6D2F1 (C57BL/6 females×DBA/2 males, CD2F1 (Balb/c females×DBS/2 males) and B6C3fl (C57BL/6×C3H) were bred at Wayne State University from strains obtained from the Frederick Cancer Research Facility, Frederick, Maryland or purchased from commercial suppliers.
Tumors: Murine Tumor: P388 and an adriamycin-resistant (ADR) subline P388/ADR leukemia and the following transplantable solid tumors of mice were used for in vivo testing: B16 melanoma (B16), pancreatic ductal adenocarcinoma No. 03 (Pane 03), colon adenocarcinoma No. 38 (colo 38), lung carcinoma No. 12 (LC 12), mammary ductal adenocarcinoma No. 16/C (Mam16C) and an adriamycin-resistant subline Mam16C/ADR. Human tumor: A single human tumor, mammary carcinoma MX-1 was used for in vivo testing. All tumors are in the Developmental Therapeutics Program frozen tumor respository, maintained by the Biological Testing Branch, Frederick Maryland. Each has a detailed description, code identification number, and list of references at the National Tumor Repository. Murine tumors were maintained in the mouse strain of origin and were transplanted in the appropriate F1 hydrid (or the strain of origin) for therapy trials. Human mammary carcinoma MX-1 (MX1) was maintained as a subcutaneous implant in either athymic Swiss (Cr: NIH(S)-nu) or athymic random bred (NCR-nu) mice and transplanted in NCR-nu for therapy trials.
Chemotherapy: For pancreatic ductal adenocarcinoma No. 3, colon adenocarcinoma No. 38 (colo 38), lung carcinoma No. 12 LC 12) and both adriamycin-sensitive (RP) and-resistant (ADR) mammary ductal adenocarcinoma No. 16 (Mam16) tumors, bilateral tumor implants were used to help ensure a more uniform tumor burden per mouse (thus reducing the requirement for greater numbers of mice per group). The animals necessary to begin an experiment were pooled, implanted bilaterally s.c. on day zero with 30-60 mg tumor fragments using a 12-gauge trocar, and again pooled before randomization to the various treatment and control groups. Chemotherapy was started within three days after tumor implantation while the number of cells per mouse was relatively small (1×10^7 -1×10^8 cells).
Quantitative end points used to assess antitumor activity included % Increased Life Span (% ILS), Tumor Cell Kill (Log10 kill), and Tumor Growth Inhibition (T/C). Long Term Survivors (45 or 60 day) were excluded from calculations of %ILS and Tumor Cell Kill.
The log10 cell kill was calculated from the following formula: [formula] where T-C is the tumor difference in the median day of death between the treated (T) and the control (C) groups and Td is the tumor doubling time (in days), the latter estimated from the best fit straight line from a log-linear growth plot of the control-group tumors in exponential growth. The conversion of the T-C values to log10 cell kill is possible because the Td for tumors regrowing post-treatment approximated the Td values of the tumors in untreated control mice.
Tumors were measured with a caliper once or twice weekly (as needed) until either tumors exceeded 1600 mg or cure was assured. Tumor weights were estimated from two-dimensional measurements: Tumor Weight (mg)=(a×b^2) / 2, where a and b are the tumor length and width (ram) respectively. Measurements were carried out simultaneously in both treatment and control groups. When the control group tumors reached approximately 750-1500 mg in size (median of group), the median tumor weight of each group was determined (including zeros). The T/C value in percent is an indication of antitumor effectiveness. The % T/C was calculated from the following formula for solid murine tumor models: [formula] where T and C are median tumor weights of the treatment and control groups, respectively. A T/C equal to or less than 42% is considered significant antitumor activity. […]

[2] = system: P388 murine leukemia cells; experiment: In vitro cytotoxicity, one-hour exposure, clonogenic survival of P388 cells; format: cell-based; settings: Mus musculus, read-out: in vitro cytotoxicity IC50, 1 hr exp.
Procedure: In vitro cytotoxicity was assayed by determining cell survival following exposure of P388 murine leukemia cells to a range of test compound concentrations. Cytotoxicity was quantitated following either a one-hour exposure or continuous exposure of P388 cells to test compound.
A Manual of Basic Technique. […] Briefly, following drug exposure cells were plated in soft agar and incubated (37°, 5% CO2) for 7-10 days during which time viable cells form visible colonies. Cytotoxicity following continuous exposure of cells to test compound was assayed by quantitating total P388 cells on a Coultier Counter following a 48-hour co-incubation of test compound with cells. P388 cells were maintained in log phase throughout the duration of cytotoxicity assays.
The percentage of cells surviving relative to an untreated control was graphed as a function of increasing drug concentration.

Row | Compound | MTD ([1]; iv, MTD) [mg/kg] | IC50 ([2]; P388, 1 hr exposure) [nM] | MTD ([1]; MTD) [mg/kg] | other results
1 | Cc1cc(-c2c(F)cc3c4nn(CCN(C)C)c(=O)c-4cn(C4CC4)c3c2F)cc(C)n1.O=C(O)/C=C/C(=O)O [Example 1, 5-Cyclopropyl-6,8-difluoro-2,5-dihydro-2-[2-(dimethylamino)-ethyl]-7-(2,6-dimethyl-4-pyridinyl)-3H-pyrazolo[4,3-c]quinolin-3-one (E)-2-butendioate (1:1)] |  |  |  | MTD ([1]; iv, Panc03(sc), drug iv, qd 3,4, exp 1005A, read-out: MTD): 52 mg/kg; MTD ([1]; iv, Panc03(sc), drug iv, qd 3,6,9, exp 1146, read-out: MTD): 34 mg/kg; MTD ([1]; iv, Panc03(sc), drug iv, qd 3, exp 895A, read-out: MTD): 35 mg/kg; MTD ([1]; iv, Panc03(sc), drug iv, qd 3-9, exp 910, read-out: MTD): 45 mg/kg; IC50 ([2]; P388, 1 h): 260 nM
2 | Cc1cc(-c2c(F)cc3c4nn(CCCN(C)C)c(=O)c-4cn(C4CC4)c3c2F)cc(C)n1 [Example 14] | 107 | 160 |  | 
3 | Cc1cc(-c2c(F)cc3c4nn(CCNCCO)c(=O)c-4cn(C4CC4)c3c2F)cc(C)n1 [Example 17] |  | 1300 | 1410 | 
4 | Cc1cc(-c2c(F)cc3c4nn([C@H]5CC[C@@H](N(C)C)CC5)c(=O)c-4cn(C4CC4)c3c2F)cc(C)n1 [Example 51a] | 63 | 67 |  | 
5 | Cc1cc(-c2c(F)cc3c4nn([C@H]5CC[C@H](N(C)C)CC5)c(=O)c-4cn(C4CC4)c3c2F)cc(C)n1 [Example 51b] |  | 260 | > 390 | 
6 | Cc1cc(-c2c(F)cc3c4nn([C@H]5CC[C@@H](N)CC5)c(=O)c-4cn(C4CC4)c3c2F)cc(C)n1 [Example 56a, 2-(Cis-4-Aminocyclohexyl)-5-cyclopropyl-6,8-difluoro-2,5-dihydro-7-(2,6-dimethyl-4-pyridinyl)-3H-pyrazolo-[4,3-c]quinolin-3-one] | 110 | 440 |  | 
